From patent US12358915B2, “METTL3 inhibitory compounds” (STORM THERAPEUTICS LTD., priority 2019, dated 2025)
Counter-ions that a name gives are not always drawn. Like-named read-outs stand apart in the source and are kept apart here.

Biological target: T1, METTL3/14 (Homo sapiens, UniProt Q86U44)
T1 construct: The enzyme used was full-length his-tagged METTL3; His; made in house
Assay: METTL3/14 methyltransferase assay (METTL3_14 RFMS, RapidFire mass spectrometry);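 note: recombinant His-tagged METTL3 with FLAG-tagged METTL14 from baculovirus, SAH product quantified by mass spectrometry against isotope-labelled internal standards, 60 min at room temperature, scaled between no-RNA and DMSO-only wells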
Assay type: biochemical

[1] = 5 nM METTL3/14, 0.2 μM RNA substrate, 0.5 μM SAM, lower limit of the assay IC50=5 nM, Compounds 63-265, read-out: METTL3_14 RFMS IC50
[2] = 5 nM METTL3/14, 0.2 μM RNA substrate, 0.5 μM SAM, lower limit of the assay IC50=5 nM, Compounds 1-62, read-out: METTL3_14 RFMS IC50
[3] = 5 nM METTL3/14, 0.2 μM RNA substrate, 0.5 μM SAM, lower limit of the assay IC50=5 nM, Compounds 266-351, read-out: METTL3_14 RFMS IC50

T1 sequence (Q86U44 whole entry): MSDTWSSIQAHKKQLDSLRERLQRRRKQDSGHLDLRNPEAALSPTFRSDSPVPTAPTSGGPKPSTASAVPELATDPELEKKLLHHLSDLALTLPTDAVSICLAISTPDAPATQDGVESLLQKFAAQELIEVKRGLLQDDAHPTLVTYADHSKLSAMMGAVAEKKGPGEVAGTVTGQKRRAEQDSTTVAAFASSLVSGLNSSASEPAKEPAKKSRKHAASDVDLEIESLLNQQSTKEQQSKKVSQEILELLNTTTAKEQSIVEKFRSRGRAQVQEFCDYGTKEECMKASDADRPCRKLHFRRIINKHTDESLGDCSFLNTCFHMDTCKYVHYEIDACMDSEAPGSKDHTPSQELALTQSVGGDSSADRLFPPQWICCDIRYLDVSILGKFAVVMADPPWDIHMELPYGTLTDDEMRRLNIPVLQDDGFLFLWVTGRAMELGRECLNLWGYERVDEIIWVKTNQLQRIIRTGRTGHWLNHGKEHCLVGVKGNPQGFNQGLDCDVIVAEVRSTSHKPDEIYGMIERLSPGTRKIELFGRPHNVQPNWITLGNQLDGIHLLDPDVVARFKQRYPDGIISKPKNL
T1 sequence (Q9HCE5 whole entry partner): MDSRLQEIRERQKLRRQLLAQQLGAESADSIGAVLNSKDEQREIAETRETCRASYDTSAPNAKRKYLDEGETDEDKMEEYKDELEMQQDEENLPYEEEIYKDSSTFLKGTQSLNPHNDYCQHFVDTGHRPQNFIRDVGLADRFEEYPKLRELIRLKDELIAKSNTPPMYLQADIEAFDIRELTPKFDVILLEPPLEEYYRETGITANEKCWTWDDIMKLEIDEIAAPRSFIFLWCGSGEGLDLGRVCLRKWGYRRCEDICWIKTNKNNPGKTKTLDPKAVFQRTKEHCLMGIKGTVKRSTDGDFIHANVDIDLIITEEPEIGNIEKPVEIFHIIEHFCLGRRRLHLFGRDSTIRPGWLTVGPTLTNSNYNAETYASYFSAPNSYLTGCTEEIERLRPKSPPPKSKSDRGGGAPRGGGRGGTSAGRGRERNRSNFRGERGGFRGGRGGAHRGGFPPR

| SMILES | IC50 [1] [nM] | other results |
| --- | --- | --- |
| O=C(NCc1cn2cc(CN3CCNCC3)ccc2n1)c1cccc2[nH]ncc12 [Compound 38, N-({6-[(piperazin-1-yl)methyl]imidazo[1,2-a]pyridin-2-yl}methyl)-1H-indazole-4-carboxamide] |  | IC50 [2]: 5440 nM |
| O=C(NCc1cn2cc(CN3CCC(Oc4ccccc4)CC3)ccc2n1)c1cc(=O)n2ccccc2n1 [Compound 156, 4-oxo-N-({6-[(4-phenoxypiperidin-1-yl)methyl]imidazo[1,2-a]pyridin-2-yl}methyl)-4H-pyrido[1,2-a] pyrimidine-2-carboxamide] | 61.7 |  |
| Cc1ccc2nc(CNC(=O)c3cc(-c4ccn[nH]4)cc4[nH]ncc34)cn2c1 [Compound 8, N-({6-methylimidazo[1,2-a]pyridin-2-yl}methyl)-6-(1H-pyrazol-5-yl)-1H-indazole-4-carboxamide] |  | IC50 [2]: 4560 nM |
| Cc1ccc2nc(Cn3cc(-c4cccc5[nH]nc(N)c45)nn3)cn2c1 [Example 272, 4-[1-[(6-methylimidazo[1,2-a]pyridin-2-yl)methyl]triazol-4-yl]-1H-indazol-3-amine] |  | IC50 [3]: 9020 nM |
| O=C(NCC1CCCCC1)c1ccc2nc(Cn3cc(-c4cccc5[nH]ncc45)nn3)cn2c1 [Example 249, N-(cyclohexylmethyl)-2-{[4-(1H-indazol-4-yl)-1H-1,2,3-triazol-1-yl]methyl}imidazo[1,2-a]pyridine-6-carboxamide] | 229 |  |
| Cc1cccn2cc(CNC(=O)c3cc(=O)n4ccccc4n3)nc12 [Compound 27, N-({8-methylimidazo[1,2-a]pyridin-2-yl}methyl)-4-oxo-4H-pyrido[1,2-a]pyrimidine-2-carboxamide] |  | IC50 [2]: 6610 nM |
| CC1CN(Cc2ccc3nc(CNC(=O)c4cc(=O)n5ccccc5n4)cn3c2)CC(C)O1 (stereo not drawn) [Compound 199, N-({6-[(2,6-dimethylmorpholin-4-yl)methyl]imidazo[1,2-a]pyridin-2-yl}methyl)-4-oxo-4H-pyrido[1,2-a]pyrimidine-2-carboxamide] | 1860 |  |
| Cc1ccc2nc(CNC(=O)c3cc(=O)n4ccccc4n3)cn2c1 [Compound 15, N-({6-methylimidazo[1,2-a]pyridin-2-yl}methyl)-4-oxo-4H-pyrido[1,2-a]pyrimidine-2-carboxamide] |  | IC50 [2]: 536 nM; IC50 (primary enzyme screen, inhibition of RNA methyltransferase activity, lower limit of the assay is IC50=5 nM, read-out: IC50): 520 nM |
| O=C(NCc1cn2cc(C3(NCC4CCCCC4)CC3)ccc2n1)c1cc(=O)n2ccccc2n1 [Compound 245, N-[(6-{1-[(cyclohexylmethyl)amino]cyclopropyl}imidazo[1,2-a]pyridin-2-yl)methyl]-4-oxo-4H-pyrido[1,2-a]pyrimidine-2-carboxamide] | 735 |  |
| Cc1ccc2nc(COC(=O)c3cccc4[nH]ncc34)cn2c1 [Compound 41, {6-methylimidazo[1,2-a]pyridin-2-yl}methyl 1H-indazole-4-carboxylate hydrochloride] |  | IC50 [2]: 1340 nM |
| O=C(NCc1cn2cc([C@H]3COC[C@@H](C4CCCCC4)N3)ccc2n1)c1cc(=O)n2ccccc2n1 [Example 230, N-({6-[(3S,5R)-5-cyclohexylmorpholin-3-yl]imidazo[1,2-a]pyridin-2-yl}methyl)-4-oxo-4H-pyrido[1,2-a]pyrimidine-2-carboxamide] | 81.3 |  |
| O=C(NCc1cn2cc(CNCC3CCCCC3)ccc2n1)c1cccc2[nH]ncc12 [Compound 182, N-[(6-{[(cyclohexyl-methyl)amino]methyl}imidazo[1,2-a]pyridin-2-yl)methyl]-1H-indazole-4-carboxamide] | 179 |  |
| CNCc1ccc2nc(CNC(=O)c3cccc4[nH]ncc34)cn2c1 [Compound 44, N-({6-[(methylamino)methyl]imidazo[1,2-a]pyridin-2-yl}methyl)-1H-indazole-4-carboxamide dihydrochloride] |  | IC50 [2]: 5050 nM |
| O=C(NCc1cn2cc(CN3CC4CC3CO4)ccc2n1)c1cc(=O)n2ccccc2n1 (stereo not drawn) [Compound 349, N-{[6-({2-oxa-5-azabicyclo[2.2.1]heptan-5-yl}methyl)imidazo[1,2-a]pyridin-2-yl]methyl}-4-oxo-4H-pyrido[1,2-a]pyrimidine-2-carboxamide] |  | IC50 [3]: 303 nM |
| c1cc(-n2cc(Cc3cn4ccccc4n3)nn2)c2cn[nH]c2c1 [Example 336, 4-(4-(imidazo[1,2-a]pyridin-2-ylmethyl)-1H-1,2,3-triazol-1-yl)-1H-indazole] |  | IC50 [3]: 4160 nM |
| O=C(NCc1cn2cc([C@H]3COC[C@@H](C4CCCCC4)N3)ccc2n1)c1cccc2[nH]ncc12 (racemic) [Example 231, N-({6-[(3S,5R)-5-cyclohexylmorpholin-3-yl]imidazo[1,2-a]pyridin-2-yl}methyl)-1H-indazole-4-carboxamide] |  | IC50 (read-out: METTL3_14 RFMS IC50): 1220 nM |
| C[C@@H]1COC[C@H](c2ccc3nc(CNC(=O)c4cc(=O)n5ccccc5n4)cn3c2)N1 [Example 233, N-({6-[(3S,5R)-5-methylmorpholin-3-yl]imidazo[1,2-a]pyridin-2-yl}methyl)-4-oxo-4H-pyrido[1,2-a]pyrimidine-2-carboxamide] | 1390 |  |
| CC(C)(C)CNCc1ccc2nc(CNC(=O)c3cc(=O)c4ccccc4o3)cn2c1 [Compound 265, N-[(6-{[(2,2-dimethylpropyl)amino]methyl}imidazo[1,2-a]pyridin-2-yl)methyl]-4-oxo-4H-chromene-2-carboxamide] | 50.6 |  |
| NCc1ccc2nc(CNC(=O)c3cccc4[nH]ncc34)cn2c1 [Compound 39, N-{[6-(aminomethyl)imidazo[1,2-a]pyridin-2-yl]methyl}-1H-indazole-4-carboxamide] |  | IC50 [2]: 1470 nM |

More lines, main results first:

| IC50 [1] [nM] | SMILES | other results |
| --- | --- | --- |
| 43.5 | O=C(NCc1cn2cc(CNC3CCC(F)(F)CC3)ccc2n1)c1cc(=O)n2ccccc2n1 [Compound 115, N-[(6-{[(4,4-difluoro-cyclohexyl)amino]methyl}imidazo [1,2-a]pyridin-2-yl)methyl]-4-oxo-4H-pyrido [1,2-a]pyrimidine-2-carboxamide] |  |
| 61.5 | CN(CCC1CC1)Cc1ccc2nc(CNC(=O)c3cc(=O)n4ccccc4n3)cn2c1 [Compound 204, N-[(6-{[(2-cyclopropylethyl) (methyl)amino]methyl}imidazo [1,2-a]pyridin-2-yl)methyl]-4-oxo-4H-pyrido [1,2-a]pyrimidine-2-carboxamide] |  |
| 25.5 | O=C(NCc1cn2cc(CNCCC(F)(F)F)ccc2n1)c1cc(=O)n2ccccc2n1 [Compound 85, 4-oxo-N-[(6-{[(3,3,3-trifluoropropyl)amino]methyl}imidazo[1,2-a]pyridin-2-yl)methyl]-4H-pyrido[1,2-a]pyrimidine-2-carboxamide] |  |
| 109 | O=C(NCc1cn2cc(CNCC3COC3)ccc2n1)c1cc(=O)n2ccccc2n1 [Compound 111, N-{[6-({[(oxetan-3-yl)methyl]amino}methyl)imidazo[1,2-a]pyridin-2-yl]methyl}-4-oxo-4H-pyrido[1,2-a] pyrimidine-2-carboxamide] |  |
| 318 | O=C(NCc1cn2cc(CNCc3cncs3)ccc2n1)c1cc(=O)n2ccccc2n1 [Compound 99, 4-oxo-N-{[6-({[(1,3-thiazol-5-yl)methyl]amino}methyl)imidazo[1,2-a]pyridin-2-yl]methyl}-4H-pyrido[1,2-a] pyrimidine-2-carboxamide] |  |
| 93.2 | CC1(CNCc2ccc3nc(CNC(=O)c4cc(=O)n5ccccc5n4)cn3c2)CCCO1 (stereo not drawn) [Compound 160, N-{[6-({[(2-methyloxolan-2-yl)methyl]amino}methyl)imidazo [1,2-a]pyridin-2-yl]methyl}-4-oxo-4H-pyrido [1,2-a]pyrimidine-2-carboxamide] |  |
| 354 | O=C(NCc1cn2cc(CNCC3CCOCC3)ccc2n1)c1cc(=O)n2ccccc2n1 [Compound 82, N-{[6-({[(oxan-4-yl)methyl]amino}methyl)imidazo[1,2-a]pyridin-2-yl]methyl}-4-oxo-4H-pyrido[1,2-a] pyrimidine-2-carboxamide] |  |
| 87.2 | O=C(NCc1cn2cc(CNC[C@H]3CCCO3)ccc2n1)c1cc(=O)n2ccccc2n1 [Compound 118, 4-oxo-N-({6-[({[(2R)-oxolan-2-yl]methyl}amino)methyl]imidazo[1,2-a]pyridin-2-yl}methyl)-4H-pyrido[1,2-a]pyrimidine-2-carboxamide] |  |
| 16.5 | O=C(NCc1cn2cc(CNCc3ccc(F)cc3)ccc2n1)c1cc(=O)n2ccccc2n1 [Compound 80, N-{[6-({[(4-fluorophenyl)methyl]amino}methyl)imidazo [1,2-a]pyridin-2-yl]methyl}-4-oxo-4H-pyrido[1,2-a]pyrimidine-2-carboxamide] |  |
| 48.1 | C[C@@H](NCc1ccc2nc(CNC(=O)c3cc(=O)n4ccccc4n3)cn2c1)c1ccccc1 [Compound 75, 4-oxo-N-{[6-({[(1R)-1-phenylethyl]amino}methyl)imidazo[1,2-a]pyridin-2-yl]methyl}-4H-pyrido[1,2-a]pyrimidine-2-carboxamide] |  |
| 131 | O=C(NCc1cn2cc(CNCCOC(F)(F)F)ccc2n1)c1cc(=O)n2ccccc2n1 [Compound 94, 4-oxo-N-{[6-({[2-(trifluoromethoxy)ethyl]amino}methyl)imidazo [1,2-a]pyridin-2-yl]methyl}-4H-pyrido[1,2-a] pyrimidine-2-carboxamide] |  |
| 30 | C[C@H](NCc1ccc2nc(CNC(=O)c3cc(=O)n4ccccc4n3)cn2c1)c1ccccc1 [Compound 76, 4-oxo-N-{[6-({[(1S)-1-phenylethyl]amino}methyl)imidazo [1,2-a]pyridin-2-yl]methyl}-4H-pyrido[1,2-a] pyrimidine-2-carboxamide] |  |
| 62.5 | O=C(NCc1cn2cc(CNCc3cccc(F)c3)ccc2n1)c1cc(=O)n2ccccc2n1 [Compound 79, N-{[6-({[(3-fluorophenyl)methyl]amino}methyl)imidazo[1,2-a]pyridin-2-yl]methyl}-4-oxo-4H-pyrido [1,2-a]pyrimidine-2-carboxamide] |  |
